Test results as given in patent publication US10028958B2, “Methods of treating cancer with a combination of selected MEK1/2 and AXL inhibitors” (Massachusetts Institute of Technology, priority 2014, dated 2018).

Legend:
[1] = system: ovarian carcinoma and malignant melanoma; experiment: Combination drug treatment cell growth assay, 72 h; format: cell-based
Protocol: Drugs were purchased from Selleck Chem (Houston, Tex.) and LC Labs (Woburn, Mass.). Cells were grown as described by manufacturers' guidelines. […] For cell growth assays, 5000 cells were plated per well in a 96-well plate, treated with drugs the following day, and counted at 72 h according to either a rezasurin assay (PrestoBlue; Life Technologies, Grand Island, N.Y.) using manufacturer's guidelines, or by flow cytometry following trypsinization and immediate analysis on an LSR-II (BD Biosciences, San Jose, Calif.).

MDA-MB231-LM2 cells = experiment: Orthotopic xenograft model of TNBC: tumor growth, metastasis, immunostaining, plasma receptors; format: in vivo, mice; details: primary tumors, 21 days after treatment
Protocol: For orthotopic mammary transplant assays, 6-week-old female NOD/SCID-gamma mice (JAX) were anesthetized by intraperitoneal (i.p.) injection of 125-250 mg/kg body weight of Avertin (reconstituted in PBS), followed by i.p. injection of 100 μL, of 12 μg/mL buprenorphine for analgesia. A small incision was made on the right flank, and 250,000 MDA-MB231-LM2 cells in 25 μL, of HBSS were injected into the right #4 fat pad using a 25-μL Hamilton syringe. Mice received three additional i.p. injections of 100 μL, of 12 μg/mL buprenorphine at 12 h intervals following the surgery. […] Twenty (20) days post-surgery, when tumor size was palpable, mice were ranked by tumor size and semi-randomly divided into four groups of equal distribution in tumor size. […]
MET and AXL levels were quantified by measuring fluorescent staining intensity over a line drawn radially from the tumor edge towards the tumor core. […] Regions with morphology characteristic of stroma or necrosis were generally avoided during quantification. Peak intensities along the line were confirmed by visual inspection as corresponding to cell membranes, and were quantified and indexed according to the distance from the tumor edge.

ADAM17 = ADAM17 dimerization (s-EGS cross-linking, western blot); format: cell-based; details: 3 h; MDA-MB231, MDA-MB157, BT549
Protocol: For each condition, two confluent 15 cm plates of cells were serum-starved for 4 h, treated with inhibitor for 3 h, rinsed with 4° C. PBS, incubated with 0.5 mg/ml sulfo-EGS (Pierce) for 30 min., and lysed in 1% NP40 buffer. Lysates were clarified, precleared with agarose resin, incubated with protein A/G resin (Pierce) and anti-ADAM17 antibody (R&D Systems Duo-set) overnight, washed, and then boiled in denaturing lysis buffer. Methods roughly follow previously described protocols (Miller, M. A., Meyer, A. S., Beste, M. T., Lasisi, Z., Reddy, S., Jeng, K. W., Chen, C. H., Han, J., Isaacson, K., Griffith, L. G. et al. (2013). ADAM-10 and -17 regulate endometriotic cell migration via concerted ligand and receptor shedding feedback on kinase signaling, Proc Natl Acad Sci USA 110, E2074-E2083; Xu, P., Liu, J., Sakaki-Yumoto, M., and Derynck, R. (2012). TACE activation by MAPK-mediated regulation of cell surface dimerization and TIMP3 association, Sci Signal 5, ra34).

panel of cell lines = experiment: Proliferation/cytotoxicity cell count by flow cytometry; format: cell-based; details: individual drug treatment; rough approximation
Protocol: Proliferation and cytotoxicity were assessed by gently rinsing cells, trypsinizing for 15 min, and immediately counting cells by flow-cytometry. Live/dead staining routinely confirmed the majority (>98%) of counted cells to be alive using this procedure. Synergy was calculated using the model of Bliss independence (Bliss, C. I. The toxicity of poisons applied jointly Annals of applied biology 26, 585-615 (1939)), reported herein as the ratio of [observed combination effect size]/[predicted combination effect size], such that values >1 indicate super-additive drug effect, or synergy, and values <1 indicate antagonism. Drug concentrations for synergy measurements were chosen to roughly approximate the IC30 value averaged across the panel of cell lines for the individual drug treatments, and were 20 μM U0126, 7 μM PD325901, and 200 nM R428.

surface AXL = details: 24 hours; 10 cell lines; more in lines with AXLi/MEKi synergy
Protocol: Cells were trypsinized, rinsed in 4° C. phospho-buffered saline (PBS)+3% FBS, incubated with 1° Ab (i.e., primary antibody) in PBS+3% FBS for 1 h, rinsed, and fixed overnight in PBS+1% formaldehyde at 4° C. The following day, cells were rinsed, incubated with 2° Ab (i.e., secondary antibody) conjugated to either Alexa647 or Alexa546, rinsed, and analyzed by flow cytometry. Fold-change was determined after subtracting the median fluorescence from control cells stained with the IgG control antibody.

[2] = system: supernatant TIMP-1 and -3; experiment: Antibody microarray analysis of MDA-MB231 supernatant; format: cell-based; details: 24 h; MDAMB231; Ab-microarray
Protocol: MDA-MB231 cells were plated in 10 cm plates at 70% confluency, treated the following day with either DMSO or PD325901, and supernatant was collected 24 hours (h) later. Using L-1000 RayBio (Norcross Ga.) microarrays, supernatant was processed according to manufacturer instructions. Two biological replicate samples were analyzed for the control and MEKi conditions, with one sample undiluted and the other diluted 1:5 in growth media. Each array contains duplicate antibody spots, and so a total of n=4 replicates was used to determine significant changes in supernatant proteins. Only proteins measured more than four standard deviations above background for at least one condition were included in the analysis. Gene set enrichment analysis was performed as previously described using gene ontology (GO) gene sets (Subramanian, A. et al., Gene set enrichment analysis: a knowledge-based approach for interpreting genome-wide expression profiles. Proc Natl Acad Sci USA 102, 15545-15550 (2005)). […] The other top gene-sets were “intrinsic to membrane”, “integral to membrane”, “receptor activity”, and “intrinsic to plasma membrane”. The highest enrichment score in PD325901-treated cells was for “hematopoietin interferon class-D200 domain cytokine receptor binding” comprising 10 non-transmembrane proteins, with a corresponding p-value of 0.003.

sheddase substrates = experiment: Supernatant accumulation of sheddase substrates (ELISA, bead-based immunoassay)
Protocol: The following inhibitors were used in FIG. 1H, at the following concentrations: metalloproteinase inhibitor BB94 (10 μM; Tocris Bioscience), p38 inhibitor SB203580 (20 μM; Selleck Chem), MEK1/2 inhibitor PD0325901 (10 μM; LC Labs), Met/AXL inhibitor XL-880 (5 μM; Selleck Chem), MEK1/2 inhibitor U0126 (10 μM; Selleck Chem), MEK1/2 inhibitor AZD6244 (10 μM; Selleck Chem), Aurora kinase inhibitor VX-680 (10 μM; Selleck Chem), PI3K inhibitor LY294002 (10 μM; Selleck Chem), JNK1/2 inhibitor JNK-IN-8 (3 μM; courtesy Nathaniel Gray, Harvard Medical School), JNK inhibitor SP600125 (10 μM; LC Labs), EGFR inhibitor gefitinib (1 μM; LC Labs), EGFR inhibitor erlotinib (1 μM; LC Labs), JNK inhibitor TCS-6o (1 μM; Tocris Bioscience), Abl inhibitor imatinib (1 μM; LC Labs), EGFR/HER2 inhibitor lapatinib (1 μM; LC Labs), AXL inhibitor R428 (3 μM; Selleck Chem), Alk5 inhibitor ALX-270-448 (5 μM; Enzo life sciences), AXL/MET inhibitor MP470 (5 μM; Selleck Chem), myosin light chain kinase inhibitor ML7 (1 μM; Sigma), and glycogen synthase kinase 3b inhibitor SB216763 (10 μM; Selleck Chem) Inhibitor concentrations were chosen based roughly on exceeding previously published Ki and IC50 values. The ADAM-10 inhibitor pro-ADAM-10 was from Biozyme, Inc. (St. Joseph, Mo.) and was used at 4 μM.
AXL, MET, TNFR1, and EGF-ligand supernatant measurements were performed using duo-set ELISA kits (R&D Systems, Minneapolis, Minn.). Total RTK measurements for HER2 and HER4 were performed using bead-based immunoassays (EMD Millipore, Billerica, Mass.).
For quantification of supernatant protein levels, cell supernatant was collected at the indicated time-point, spun for 5 min at 300 g, and frozen at −80° C. for future use. Supernatants were routinely normalized to cell count, determined via trypsinization and ViCell (Beckman Coulter, Brea, Calif.), and volumes were kept consistent across treatments.
As shown in FIG. 3A-3B, MDA-MB231 cells were treated with siRNA as described above and were seeded in 96-well plates at equal 90% confluency. Media was changed at 48 h post-transfection, and 24 h later supernatant was collected and cells were analyzed by live-cell immunostaining. For proADAM10 treatment, cells were seeded in 96-well plates at 90% confluency, treated with inhibitor or buffer control the following day, and supernatant was collected 24 h later.

p-JNK = experiment: Short term BB94-elicited downstream phosphosignaling (bead-based immunoassay); format: cell-based; details: MDA-MB231; co-treatment with BB94; 2 h
LOX-IMVI cells = experiment: Xenograft mouse model of melanoma; set-up: species or system mice; details: in vivo
Protocol: For the xenograft melanoma experiment, 7 week old female athymic nude mice (Taconic) were injected with 1×10^6 LOX-IMVI cells in 1:1 Matrigel:HBSS subcutaneously in each flank (Yang, D., et al. “RasGRP3, a Ras activator, contributes to signaling and the tumorigenic phenotype in human melanoma.” Oncogene 30, no. 45: 4590-4600 (2011)). 7 days post-cell injection, tumors were measured by calipers and mice were ranked by tumor size and semi-randomly divided into 6 groups of equal distribution in tumor size, with 10 mice per group. […]
Tumor volumes was measured two to three times a week, estimated using the spherical tumor volume formula V=4/3πr^3, where r is averaged from 4 caliper measurements performed by two blinded researchers. […] For metastasis quantification, the numbers of metastases were counted in paraffin-embedded, H&E-stained sections, by a blinded researcher. Upon sacrifice, blood was collected via cardiac puncture into a heparinized syringe, immediately centrifuged at 2000×g for 20 min, and plasma fraction was stored at −80° C. for later quantification of receptor levels by ELISA and bead-based immunoassay.

AXL pY = experiment: Short term p-AXL up-regulation (bead-based immunoassay); format: cell-based; details: 2 h; MDAMB231
From the text: pTyr-RTK measurements used bead-based immunocapture with a pan-pTyr detection antibody (EMD Millipore, Billerica, Mass.). Unless otherwise stated, immunoassays followed manufacturer protocols. Bead-based immunoassays were routinely normalized according to the micro BCA protein assay (Pierce) or cell count (ViCell). ADAM17 (pThr^735) and ADAM10 western blot Abs were from Sigma. Anti-phospho Histone H3 (Ser10) for measuring mitotic index was from EMD Millipore, (Billerica, Mass.). GAPDH (glyceraldehyde-3-phosphate dehydrogenase) and α-actinin were used for Western blotting and purchased from Cell Signaling Technology (Danvers, Mass.). APP Ab was from Abcam (Cambridge, Mass.). Live-cell immunostaining was performed using R&D Systems (Minneapolis, Minn.) Abs. SiRNAs, including non-targeting control siRNA, were packaged as SMARTpool ON-TARGETplus and used with DharmaFECT4 (Thermo Scientific, Tewksbury, Mass.). For ADAM10/17 western blots, lysis was performed with 50 mM tris-HCl (pH 7.5), 10% glycerol, 150 mM NaCl, and 1% NP-40, with complete protease (Roche, Nutley, N.J.) and phosphatase (Boston BioProducts, Ashland, Mass.) inhibitors added immediately before use.

## S=C(NCc1ccc2c(c1)OCO2)N1CCN(c2ncnc3c2oc2ccccc23)CC1 [MP470, amuvatinib]
[1]
  efficacy of combination treatment with MAPK and RTK inhibitors (cell count): efficacious

## O=C(NOC[C@H](O)CO)c1ccc(F)c(F)c1Nc1ccc(I)cc1F [PD325901]
MDA-MB231-LM2 cells
  AXL and MET ectodomain immunostaining near the tumor edge: up-regulation of AXL, and MET to a lesser degree
ADAM17
  ADAM17 homodimerization: increased ADAM17 dimerization
Panel of cell lines
  IC30 value averaged across the panel of cell lines: ~7 µM
Surface AXL
  surface AXL: increase surface AXL
[2]
  supernatant TIMP-1 and -3: decreases supernatant TIMP-1 and -3
Sheddase substrates; 24 h, multiple cancer types
  supernatant RTK accumulation: reduced supernatant RTK accumulation

## Nc1nc(Nc2ccc3c(c2)CC[C@@H](N2CCCC2)CC3)nn1-c1cc2c(nn1)-c1ccccc1CCC2 [R428]
Panel of cell lines
  IC30 value averaged across the panel of cell lines: ~0.2 µM
p-JNK
  MPi-evoked p-JNK increase on co-treatment: eliminated
LOX-IMVI cells
  overall survival: no significant effect on overall survival

## N#CC(=C(/N)Sc1ccccc1N)/C(C#N)=C(\N)Sc1ccccc1N [U0126]
AXL pY
  total AXL pY: increases
Panel of cell lines
  IC30 value averaged across the panel of cell lines: ~20 µM
Surface AXL
  surface AXL: increase surface AXL
Sheddase substrates; 24 h, each dot a different cell line, ELISA
  supernatant accumulation of sheddase substrates: reduces supernatant accumulation of sheddase substrates
Sheddase substrates; MDA-MB231 cells
  supernatant levels of multiple sheddase substrates (AREG, HBEGF, TGFα, TNFR1, AXL, MET, HER2, HER4): consistently reduce supernatant levels of multiple sheddase substrates

## COc1cc2c(Oc3ccc(NC(=O)C4(C(=O)Nc5ccc(F)cc5)CC4)cc3F)ccnc2cc1OCCCN1CCOCC1 [foretinib]
[1]
  efficacy of combination treatment with MAPK and RTK inhibitors (cell count): efficacious

## CNC(=O)c1cc(Oc2ccc(NC(=O)Nc3ccc(Cl)c(C(F)(F)F)c3)cc2)ccn1 [sorafenib]
[1]
  efficacy of combination treatment with MAPK and RTK inhibitors (cell count): effective
